Here are results for two compounds from patent US8188268B2, “Porous crystalline saccharide, its preparation and uses” (Kabushiki Kaisha Hayashibara Seibutsu Kagaku Kenkyujo, priority 2005, dated 2012).

Molecules are shown by their SMILES. Values joined by “and” are separate entries in the source; they are usually repeats but may differ in a detail not shown here. Equal entries are not always repeated. Where two headings read alike, the source gives them in different places.

Data set [1] in a line: Dissolution test against cold water at 10° C. The class given is physicochemical. The procedure: A dissolution test against cold water at 10° C. was carried out using the porous anhydrous crystalline trehalose prepared by treating at 70° C. for 60 min in Example 1, the porous anhydrous crystalline maltose prepared by the method in Example 3, and the porous hydrous crystalline maltose prepared by the method in Example 5, as samples. The results were compared with those of the controls, anhydrous crystalline trehalose, hydrous crystalline trehalose, and hydrous crystalline maltose.
Twenty milliliters of 10° C.-cold water was placed in a test tube with an internal diameter of 18 mm, and then stirred using a stirring bar. A crystalline saccharide sample was put into the test tube, and the time required for the complete dissolution (for the disappearance of precipitate particles) was measured. The amount of samples was set to be 0.5 g in the case of trehalose and to be 0.2 g in the case of maltose, and the stirring rate was set to be about 300 rpm in any case. The measurement of time for dissolution under the above conditions was carried out 5-times at each sample.

Data set [2] in a line: Pore size distribution by the mercury filling method. Format: physicochemical.
The nature of data set [3]: Specific surface area by nitrogen adsorption isotherms (BET). Format: physicochemical. The procedure: Specific surface area of the porous anhydrous crystalline trehalose was measured by the nitrogen adsorption isotherms using “MODEL ASAP-2400”, a specific surface area/pore size distribution analyzer commercialized by Micromeritics, Georgia, USA. […] The result was analyzed by the BET (Brunnauer, Emmet, and Teller) method. The commercial anhydrous crystalline trehalose, a reagent grade, commercialized by Hayashibara Biochemical Laboratories Inc., Okayama, Japan, was used as a control. […] Further, those pore size distribution charts are in FIG. 19. […] The results of the analysis on the specific surface area and the pore size distribution are summarized in Table 7, and the pore size distribution chart was in FIG. 24. As a control, “MALTOSE OM”, a hydrous crystalline maltose product with maltose purity of 98% or higher, produced by Hayashibara Co., Ltd., Okayama, Japan, was used.

Data set [4] is described as follows: Crystal moisture content (Karl Fischer) on moisture absorption and drying. Format: physicochemical. The procedure: Hydrous crystalline saccharides were prepared from the respective porous anhydrous crystalline saccharide using the porous anhydrous crystalline trehalose, obtained by treating at 70° C. for 60 min in Example 1, and the porous anhydrous crystalline maltose, obtained by treating at 70° C. for 480 min in Example 3, as materials. About 50 g of the porous anhydrous crystalline saccharide and about 150 ml of deionized water were placed in respective container. Then, the both open containers were placed in the same closed vessel and leaved to stand at 27° C. for two days. By the treatment, the anhydrous crystalline saccharide was allowed to absorb moisture and converted into hydrous crystal. The resulting hydrous crystal was dried in a drying machine at 50° C. for one hour to remove excess moisture. The moisture contents of the porous anhydrous crystalline trehalose and the porous anhydrous crystalline maltose before and after the treatment to absorb moisture and after drying are in Table 6. The moisture content of crystals was measured by the conventional Karl Fischer's method.

A short description of data set [5]: Preservation test of flax seed oil powder, volatile aldehydes by GC. Format: physicochemical. To be noted: flax seed oil powder with this base. As for the experimental part:
As disclosed in Japanese Patent Kokai No. 123,195/2001 applied for by the same applicant of the present invention, it has been known that trehalose inhibits the decomposition of fatty acids and the formation of volatile aldehydes. Therefore, a preservation test of the flax seed oil powders were carried out according to the following method by using the flax seed oil powders prepared in Example 9 by using the porous anhydrous crystalline trehalose of the present invention or the control anhydrous crystalline trehalose as powderizing bases, and the amounts of the formed volatile aldehydes were compared.
One gram each of the flax seed oil powder was put into two 20 ml-vial, sealed with Butyl-rubber stopper, and then preserved in an incubator at 40° C. for three weeks. The vial was collected at the point of before the preservation or after preserving for 21 days and heated at 80° C. for 5 min. Then, 2 ml of vapor phase gas in the vial was directly subjected to gas chromatography (GC) analysis to determine the amount of volatile aldehydes. GC analysis was carried out according to the following conditions.
• Gas chromatograph: GC-17B, produced by Shimadzu Corporation, Kyoto, Japan; • Column: TC-FFAP capillary column (ID 0.52 mm×30 m), produced by GL Sciences Inc., Tokyo, Japan; • Column temperature: 40° C. to 100° C.

Data set [6] is described as follows: Oil-keeping ability with salad oil. To be noted: for Oil-keeping ability: (5 g salad oil / amount of added saccharide) x 100. More on the design: key to Oil-keeping ability: (5 g salad oil / g saccharide added at endpoint) x 100. The class given is physicochemical. As for the experimental part:
The oil-keeping ability of each crystalline saccharide was measured using the porous anhydrous crystalline trehalose prepared by treating at 70° C. for 60 min in Example 1, the control hydrous crystalline trehalose, and the control anhydrous crystalline trehalose as crystalline trehalose samples; and the porous anhydrous crystalline maltose prepared by the method in Example 3, the control hydrous crystalline β-maltose, and the control anhydrous crystalline α-maltose, and the control anhydrous crystalline β-maltose as crystalline maltose samples, and the results were compared.
The measurement of the oil-keeping ability of the crystalline saccharide was carried out according to the method disclosed in Japanese Patent Kokai No. 31,650/84. Five grams of “NISSHIN SALAD OIL”, a salad oil commercialized by Nisshin OiliO Group, Ltd., Tokyo, Japan, was placed in a 50-ml plastic container, and then gradually admixed with each powdery crystalline saccharide with stirring. […] When the amount of the mixed saccharide is further increased, the agglomerate increase in solidity and then loosen. The point that the agglomerate is loosened is estimated to be the endpoint and the oil-keeping ability was calculated using the following formula. Oil-Keeping Ability =(The amount of salad oil(5 g)/the amount of added PCS*)×100 *: Powdery crystalline saccharide tm Formula 1

The nature of data set [7]: Flax seed oil powder: keeping of powdery form. Format: physicochemical. To be noted: 1 part flax seed oil + 10 parts saccharide as base. As for the experimental part:
One part by weight of flax seed oil was admixed with 10 parts by weight of the porous anhydrous crystalline trehalose, prepared by treating at 70° C. for 60 min in Example 1, and then the mixture was kneaded to make into a powdery product. In the same manner, powdery products were prepared by using “TREHA®”, hydrous crystalline trehalose commercialized by Hayashibara Shoji Inc., Okayama, Japan, and anhydrous crystalline trehalose, prepared from hydrous crystalline trehalose by drying in vacuo at a high temperature according to the conventional method, as controls. […] The flaxseed oil powder can be preferably used as a supplement.

For data set [8] the following is noted: background art; cited from earlier work.
[9] abbreviates: 20 ml water 10° C., about 300 rpm, 0.5 g trehalose or 0.2 g maltose, listed as Porous anhydrous crystalline trehalose (Present invention).
Setting [10] is: 21 days after preservation at 40° C., listed as Porous anhydrous crystalline trehalose (Present invention).
Where [11] appears, read: before preservation, listed as Porous anhydrous crystalline trehalose (Present invention).

Take `OC[C@H]1O[C@H](O[C@H]2O[C@H](CO)[C@@H](O)[C@H](O)[C@H]2O)[C@H](O)[C@@H](O)[C@@H]1O` [Porous anhydrous crystalline trehalose (treated at 70° C. fo] [α-D-glucosyl α-D-glucoside]: in data set [1] (setting [9]), the “Time required for dissolution, No. 1” value worked out at 29 s; the “Time required for dissolution, No. 2” value amounted to 34 s; the “Time required for dissolution, No. 3” value is 40 s; the “Time required for dissolution, No. 4” value was determined as 29 s. For the same compound, the “Time required for dissolution, No. 5” value in data set [1] (setting [9]) was 31 s. Besides, the “Time required for dissolution, Average” value in data set [1] (average of 5, 20 ml water 10° C., about 300 rpm, 0.5 g trehalose or 0.2 g maltose, listed as Porous anhydrous crystalline trehalose (Present invention)) stood at 33 s. Further, the “Dissolution in cold water in comparison with controls” value in data set [1] (cold water 10° C.) is listed as “rapidly dissolved in cold water”. In addition, in data set [2], the Intrusion volume turned out to be 0.28 mL/g, the Mode pore diameter came out at 0.20 μm, the “Pore diameter of clear peak in pore size distribution chart” value is listed as “less than 5 μm” and the “Remarks (pores)” value is reported as “Having clear pores”. This compound yielded a Median pore diameter in data set [2] (control maltose values are from space between particles, not pores) of 0.29 μm. In data set [2] (listed as porous anhydrous crystalline trehalose), the Intrusion volume was 0.22 mL/g and 0.28 mL/g. Also, in data set [3] (compared with control(s)), the “Specific surface area relative to control crystalline saccharide” value is at least 5 folds. In data set [3] (nitrogen adsorption isotherms, BET), this compound returned a Specific surface area of 2.513 m^2/g. Also, the “Crystal moisture content, after drying” value in data set [4] (after moisture absorption and drying at 50° C. for one hour) is 9.66 %, w/w. Further, the “Crystal moisture content, before treatment” value in data set [4] (before moisture absorption) was 0.24 %, w/w. Also, in data set [4] (closed vessel with water, 27° C., two days), the “Crystal moisture content, after treatment” value is 10.32 %, w/w. The same compound had a 2-Heptenal in data set [5] (21 days after preservation at 40° C.) of 0.01 μg/ml-vapor phase gas. In addition, in data set [5] (setting [10]), the “2,4-Decadienal” value turned out to be 4.01 μg/ml-vapor phase gas, the 2-Hexenal amounted to 0.01 μg/ml-vapor phase gas, the 2-Nonenal worked out at 0.19 μg/ml-vapor phase gas and the 2-Octenal is recorded as 0.43 μg/ml-vapor phase gas. In data set [5] (setting [10]), this compound came in with an Acetoaldehyde of 3.77 μg/ml-vapor phase gas, a Butanal of 0.63 μg/ml-vapor phase gas, a Hexanal of 0.11 μg/ml-vapor phase gas and a Pentanal of 0.33 μg/ml-vapor phase gas. In data set [5] (setting [10]), this compound showed a Propanal of 8.66 μg/ml-vapor phase gas and a Total aldehydes of 18.15 μg/ml-vapor phase gas. In data set [5] (before preservation), this compound showed a 2-Heptenal of 0.00 μg/ml-vapor phase gas and a 2-Hexenal of 0.00 μg/ml-vapor phase gas. In data set [5] (setting [11]), the “2,4-Decadienal” value is 3.66 μg/ml-vapor phase gas, the 2-Nonenal is on record as 0.00 μg/ml-vapor phase gas, the 2-Octenal is 0.11 μg/ml-vapor phase gas and the Acetoaldehyde is recorded as 4.13 μg/ml-vapor phase gas. In data set [5] (setting [11]), this compound displayed a Butanal of 0.43 μg/ml-vapor phase gas, a Hexanal of 0.00 μg/ml-vapor phase gas, a Pentanal of 0.09 μg/ml-vapor phase gas and a Propanal of 5.77 μg/ml-vapor phase gas. Also, in data set [5] (setting [11]), the Total aldehydes amounted to 14.19 μg/ml-vapor phase gas. Besides, in data set [6], the Oil-keeping ability turned out to be 62.5. Further, the Oil-keeping ability in data set [6] (listed as Porous anhydrous crystalline trehalose (Present invention)) is listed as 62.5. Besides, in data set [6] (compared with control crystalline saccharide), the “Oil-keeping ability relative to control” value was “about 1.6 folds”. In data set [7], the “Powdery form of flax seed oil powder” value is reported as “kept good powdery form”.

Consider `OC[C@H]1O[C@@](CO)(O[C@H]2O[C@H](CO)[C@@H](O)[C@H](O)[C@H]2O)[C@@H](O)[C@@H]1O` [granulated sugar, sucrose], for which the Specific surface area entry in data set [8] is given as “about 0.1 m^2/g”.
